Peptide text beside a SMILES is read from it.
Columns and labels:
C. albicans WO-1 cells [1] = experiment: Cell permeability assay (calcein release); assay type: cell-based, Candida albicans; settings: calcein-loaded C. albicans WO-1, 10 mM potassium phosphate buffer pH 7.0, peptide 50 μg/mL, fluorescence 485/530 nm
Description: Cell permeability was monitored by the release of the intracellularly accumulated dye calcein. Overnight C. albicans WO-1 cells were washed twice with and resuspended in 10 mM potassium phosphate buffer (pH = 7.0) at a concentration of 10^7 cells mL^−1. Cells were loaded with acetomethoxy-calcein at a final concentration of 5 μM for 2 hours at room temperature. Cells were washed three times to remove the extracellular dye and then 100 μL of the suspension was transferred to FIA black 96-well plates. NCR peptides were then added at a concentration of 50 mg/L, and the release of calcein (formed by the cells' esterases) was measured by its fluorescence in a microtiter plate reader (FLUOstar OPTIMA) at excitation and emission wavelengths of 485 nm and 530 nm, respectively. Calcein efflux was calculated as previously reported.

[2] = tested on: C. albicans strains WO-1 and Sc 5314; experiment: Microdilution antifungal assay, summary for C. albicans; assay type: cell-based, Candida albicans; settings: strains WO-1 and Sc 5314, LSM medium, microdilution plate assay
Description: (§1) The antifungal activity of the NCR peptides against C. albicans strains and other Candida species was determined in vitro using 96-well flat bottom microtiter plates (Sarstedt). Fifty microliters of dilutions from each peptide (final concentrations in the assays ranged from 2.5 to 100 μg/mL) was added to 50 μL of 10^4 cells mL^−1 and 10^5 cells mL^−1 in LSM. The plates were incubated at 30°C and the peptide concentrations that prevented the germination of yeast cells were determined by microscopic analysis and measurement of absorbance at 600 nm with a microtiter plate reader (FLUOstar OPTIMA; BMG Labtech) after 24 and 48 hours. Minimal inhibitory concentration (MIC) was determined as the lowest concentration of the peptide at which there was no visible and measurable growth after 24 hours of incubation. To determine whether the antifungal effect was fungistatic or fungicidal, 10 μL from each treatment was dropped onto solid YPD plate after 3 and 24 hours. Plates were incubated at 30°C for 48 hours and developing colonies were observed. Minimal fungicidal concentration (MFC) was defined where no fungal growth could be observed.

[3] = tested on: PK E6/E7 vaginal epithelial cells; experiment: MTT assay, cytotoxicity on human epithelial cells; assay type: cell-based; settings: for Concentration that provoked cell death / toxicity: peptide in PBgluc 3 hours at 37°C, 24 hours regeneration in CKM, MTT 4 hours, 560 nm
Description: The immortalized human vaginal epithelial cell line PK E6/E7 [15] was cultured in serum-free CKM supplemented with 0.005 μg/mL recombinant epidermal growth factor, 50 μg/mL bovine pituitary extract, L-glutamine, and antibiotic/antimycotic solution (Life Technologies) in a CO2 thermostat at 37°C [16]. Cells at 60–70% confluence were used in subsequent experiments.
MTT Assay. PK E6/E7 vaginal epithelial cells were seeded in the wells of a 96-well plate at a density of 1 × 10^4 cells per well in a final volume of 100 μL. CKM was then aspirated and 100 μL of the appropriate peptide diluted in PBgluc was added. After 3 hours of incubation at 37°C, the peptide solution was removed, and the cells were let to regenerate in CKM for 24 hours. Then 5 mg/mL 3-[4,5-dimethylthiazol-2-yl]-2,5-diphenyltetrazolium bromide (MTT) was added to each well and the plate was placed to 37°C for 4 hours. The amount of formazan formed by the activity of the mitochondrial succinate dehydrogenase of living cells was measured by using a microtiter plate reader (FLUOstar OPTIMA) at the wavelength of 560 nm.
10 μg/mL of primycin, a macrolide lactone antibiotic complex that rapidly kills PK cells, was used as a control for cytotoxicity in both assays.
(§2) MTT assays and impedance measurements were performed in at least four technical parallels and two biological replicates; all the data are presented as mean ± standard deviation. Significance was calculated with Newman-Keuls post hoc test using the GraphPad Prism version 5 for Windows and a probability (P) value of less than 0.05 was considered significant.

[4] = tested on: PK E6/E7 vaginal epithelial cells infected with C. albicans WO-1; experiment: Vaginal epithelial cell - C. albicans coculture (RTCA); assay type: cell-based, human; settings: PK E6/E7 + C. albicans WO-1, MOI of 5, 3 hours coculture then peptide 3 hours in PBgluc at both 25 and 50 μg/mL, RTCA at 40 hours
Description: PK E6/E7 cells were seeded in 96-well E-plates as described above for RTCA. On the next day, an overnight culture of C. albicans WO-1 was diluted to OD = 1 and let to grow until OD = 1.5–2. The fungal cell suspension was diluted in antibiotic/antimycotic-free CKM and was added to the human cells with a multiplicity of infection (MOI) of 5. After 3 hours of coculture at 37°C, CKM medium was replaced with NCR peptides in PBgluc. After 3 hours of incubation, peptides were removed and 200 μL of fresh antibiotic/antimycotic-free CKM was added. Subsequent measurements were performed as described above.
as §2

[5] = tested on: C. albicans strain Sc5314; assay type: cell-based, Candida albicans; settings: C. albicans Sc5314, LSM medium, 30°C, 24 hours of treatment, peptide 2.5 to 100 μg/mL, microscopy and absorbance at 600 nm; mean (±spread)
Description: (§3) The C. albicans strains WO-1 and Sc5314 were maintained on YPD medium (1% (w/v) yeast extract, 2% (w/v) peptone, 2% (w/v) dextrose, 2% (w/v) agar; Beckton, Dickinson and Company). Hyphal growth was induced in complete keratinocyte medium (CKM; Life Technologies) without serum. The effect of the NCR peptides on free-living fungi was investigated either in PBgluc buffer (1 mM KH2PO4, 3 mM Na2HPO4 × 7H2O, 5% glucose, pH = 7.0) or in low-salt fungal medium (LSM) composed of 5 mM K2HPO4, 100 μM MgSO4, 10 μM FeCl, 0.2 μM CoCl2, 0.2 μM CuSO4, 4 μM Na2MoO4, 1 μM H3BO3, 0.2 μM KI, 1 μM ZnSO4, 0.2 μM MnSO4, 2% glucose, 0.2% asparagine, 40 μg/mL methionine, 4 μg/mL myo-inositol, 0.4 μg/mL biotin, 2 μg/mL thiamine-HCl, and 0.4 μg/mL pyridoxine-HCl.
as §1

C. albicans strain WO-1 = assay type: cell-based, Candida albicans; settings: C. albicans WO-1, LSM medium, 30°C, 24 hours of treatment, peptide 2.5 to 100 μg/mL, microscopy and absorbance at 600 nm; mean (±spread)
Description: as §3, §1

C. albicans WO-1 = assay type: cell-based, Candida albicans; settings: 10 μL dropped onto solid YPD, 30°C for 48 hours, mean (±spread); for Minimal fungicidal concentration, 3 h: C. albicans WO-1, 3 hours of treatment; for Minimal fungicidal concentration, 24 h: C. albicans WO-1, 24 hours of treatment
Description: as §1

C. albicans WO-1 cells [6] = experiment: Localization of FITC-labeled peptides (confocal microscopy); assay type: cell-based, Candida albicans; settings: 5 μg/mL (sublethal), 3 hours at 30°C in LSM
Description: C. albicans WO-1 cells were labeled with 5 μg/mL of the FM4-64 membrane stain (Life Technologies) and 0.5 μg/mL of the DNA stain 4′,6-diamidino-2-phenylindole (DAPI, Sigma) for 15 minutes after 2 hours of peptide treatment. Images were captured with an Axio Observer Z.1 (Zeiss) fluorescent microscope. For studying the interaction of peptides with the fungus, an overnight C. albicans WO-1 culture was diluted in LSM and treated with FITC-conjugated peptides (at the sublethal concentration of 5 μg/mL) for 3 hours at 30°C. Cells were then centrifuged for 4 minutes at 600 rpm and the unbound peptides were removed by gentle pipetting of the supernatant and cells were resuspended in LSM. The cell suspension was dropped onto a coverslip and images were taken with an Olympus FluoView FV1000 confocal laser-scanning microscope.

Compound	Calcein (dye) efflux (C. albicans WO-1 cells [1])	Anticandidal activity against the yeast form of growing C. albicans [2]	Concentration that provoked cell death / toxicity [3] [µg/mL]	Prevention of C. albicans induced epithelial cell death [4]	Minimal inhibitory concentration, Sc5314 [5]	Minimal inhibitory concentration, WO-1 (C. albicans strain WO-1)	Minimal fungicidal concentration, 3 h (C. albicans WO-1)	Minimal fungicidal concentration, 24 h (C. albicans WO-1)	Localization of FITC-labeled peptide in C. albicans cells (C. albicans WO-1 cells [6])	Efficiency of killing epithelial cells ([3]; 10 μg/mL, MTT assay, cytotoxic control)
CSCC[C@H](NC(=O)[C@H](CCCCN)NC(=O)[C@H](CCCNC(=N)N)NC(=O)[C@@H]1CCCN1C(=O)[C@H](CS)NC(=O)[C@H](Cc1c[nH]cn1)NC(=O)CNC(=O)[C@@H](NC(=O)[C@H](Cc1c[nH]cn1)NC(=O)[C@H](CCCCN)NC(=O)[C@H](CS)NC(=O)CNC(=O)[C@H](CC(N)=O)NC(=O)[C@H](CCCCN)NC(=O)[C@@H](N)CCSC)[C@@H](C)O)C(=O)N[C@@H](CS)C(=O)NCC(=O)N[C@@H](C)C(=O)N[C@@H](CCCCN)C(=O)N[C@H](C(=O)N[C@H](C(=O)N[C@@H](CCCCN)C(=O)N[C@@H](CS)C(=O)N[C@@H](CCCNC(=N)N)C(=O)N[C@@H](CC(N)=O)C(=O)N[C@@H](CC(N)=O)C(=O)N[C@@H](CCCCN)C(=O)N[C@@H](CS)C(=O)N[C@@H](CCC(N)=O)C(=O)N[C@@H](CS)C(=O)N[C@H](C(=O)N[C@@H](CCC(N)=O)C(=O)N[C@@H](CC(C)C)C(=O)O)C(C)C)[C@@H](C)O)[C@@H](C)O [NCR192] (H-MKNGCKHTGHCPRKMCGAKTTKCRNNKCQCVQL-OH; N-terminus and C-terminus assumed)	22.82 ± 11.16%	exhibited anticandidal activity	100	could be prevented						
CC[C@H](C)[C@H](NC(=O)[C@H](CS)NC(=O)CNC(=O)[C@H](CC(N)=O)NC(=O)[C@@H](N)CCCNC(=N)N)C(=O)N[C@H](C(=O)N[C@@H](CC(=O)O)C(=O)N1CCC[C@H]1C(=O)N[C@@H](CCCNC(=N)N)C(=O)N[C@@H](CS)C(=O)N1CCC[C@H]1C(=O)N[C@@H](Cc1ccc(O)cc1)C(=O)N[C@@H](CCC(N)=O)C(=O)N[C@@H](CCC(N)=O)C(=O)N[C@@H](CS)C(=O)N[C@@H](CCCNC(=N)N)C(=O)N[C@@H](CCCNC(=N)N)C(=O)N1CCC[C@H]1C(=O)N[C@@H](CC(C)C)C(=O)N[C@@H](Cc1ccc(O)cc1)C(=O)N[C@@H](CS)C(=O)N[C@@H](CCCNC(=N)N)C(=O)N[C@@H](CCCNC(=N)N)C(=O)N[C@@H](CCCNC(=N)N)C(=O)O)C(C)C [NCR247] (H-RNGCIVDPRCPYQQCRRPLYCRRR-OH; N-terminus and C-terminus assumed)	29.65 ± 12.6%	exhibited anticandidal activity	100	could be prevented	25 (±2) μg/mL	14 (±9) μg/mL	14 (±10) μg/mL	16.5 (±13) μg/mL		
EDIGHIKYCGIVDDCYKSKKPLFKIWKCVENVCVLWYK [NCR169]	no calcein release		100	unable to prevent vaginal epithelial cell death						
RLNTTFRPLNFKMLRFWGQNRNIMKHRGQKVHFSLILSDCKTNKDCPKLRRANVRCRKSYCVPI [NCR335, cationic chemically synthesized mature NCR peptide of Medicago truncatula]	43.12 ± 13.05%	exhibited anticandidal activity	> 25	could be prevented	12.5 (±2.5) μg/mL	11 (±1) μg/mL	7 (±1) μg/mL	8 (±2) μg/mL		
SFLGTFISSCKRDKDCPKLYGANFRCRKGTCVPPI [NCR035, chemically synthesized mature nodule-specific cysteine-rich (NCR) peptide of Medicago truncatula]									did not label the C. albicans cells	
VNDCIRIHCKDDFDCIENRLQVGCRLQREKPRCVNLVCRCLRR [NCR055, chemically synthesized mature nodule-specific cysteine-rich (NCR) peptide of Medicago truncatula]					50 (±3) μg/mL	50 (±4) μg/mL				
primycin [reference compound]										about 90%
